Assay results from ChEMBL document CHEMBL5543147, “Discovery and Characterization of a Novel Cereblon-Recruiting PRC1 Bridged PROTAC Degrader” (J Med Chem, 2024).
Calls of active or inactive are those of the source. The rule behind the calls is not given here.

Tests used:
[1] = biological target: T1, Protein cereblon/Polycomb protein SUZ12 (Homo sapiens) (UniProt Q15022+Q96SW2); experiment: PROTAC activity at CRBN/SUZ12 in human PC-3M cells assessed as degradation of SUZ12 protein expression at 0.2 to 5 uM incubated for 24 hrs by Western blotting analysis; format: cell-based; details: dose 0.2-5 µM
T1 sequence (Q15022 whole entry, looked up): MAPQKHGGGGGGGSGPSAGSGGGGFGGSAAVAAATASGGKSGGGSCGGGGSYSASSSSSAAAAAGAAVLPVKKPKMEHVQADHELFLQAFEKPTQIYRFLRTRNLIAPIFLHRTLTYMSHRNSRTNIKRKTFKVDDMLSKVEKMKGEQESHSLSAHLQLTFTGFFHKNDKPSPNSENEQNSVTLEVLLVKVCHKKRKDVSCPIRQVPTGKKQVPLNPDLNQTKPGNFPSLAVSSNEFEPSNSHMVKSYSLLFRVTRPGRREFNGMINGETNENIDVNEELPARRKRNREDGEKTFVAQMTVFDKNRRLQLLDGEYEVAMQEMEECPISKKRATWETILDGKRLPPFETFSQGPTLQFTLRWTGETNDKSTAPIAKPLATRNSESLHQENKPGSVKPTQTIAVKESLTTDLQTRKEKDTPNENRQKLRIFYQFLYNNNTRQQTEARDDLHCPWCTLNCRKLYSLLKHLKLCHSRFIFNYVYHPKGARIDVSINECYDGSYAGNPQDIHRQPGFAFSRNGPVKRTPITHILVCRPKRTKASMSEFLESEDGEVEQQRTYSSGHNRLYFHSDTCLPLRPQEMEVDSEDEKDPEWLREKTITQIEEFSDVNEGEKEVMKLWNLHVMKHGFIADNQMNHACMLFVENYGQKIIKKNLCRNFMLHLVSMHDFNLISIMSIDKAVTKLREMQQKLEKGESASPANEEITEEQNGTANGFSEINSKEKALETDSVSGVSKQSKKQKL
T1 sequence (Q96SW2 whole entry, looked up): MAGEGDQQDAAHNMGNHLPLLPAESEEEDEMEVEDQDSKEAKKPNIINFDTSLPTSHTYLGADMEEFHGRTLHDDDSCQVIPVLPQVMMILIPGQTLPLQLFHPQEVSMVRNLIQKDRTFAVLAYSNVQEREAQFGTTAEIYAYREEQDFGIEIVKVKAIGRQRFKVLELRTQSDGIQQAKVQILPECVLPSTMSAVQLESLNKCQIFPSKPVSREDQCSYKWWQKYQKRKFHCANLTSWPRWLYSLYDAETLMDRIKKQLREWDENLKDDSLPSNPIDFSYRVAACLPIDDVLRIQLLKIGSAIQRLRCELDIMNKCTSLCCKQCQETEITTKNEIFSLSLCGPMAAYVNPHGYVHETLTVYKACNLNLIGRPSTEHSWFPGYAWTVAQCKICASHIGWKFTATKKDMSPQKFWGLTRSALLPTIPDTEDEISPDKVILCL

[2] = biological target: T2, Protein cereblon/Polycomb complex protein BMI-1 (Homo sapiens, UniProt Q96SW2+P35226); experiment: PROTAC activity at […] in human K562 cells assessed as degradation of BMI1 protein expression at 10 uM incubated for 20 hrs in presence of EED226 by Western blotting analysis; format: cell-based
T2 sequence (P35226 whole entry, looked up): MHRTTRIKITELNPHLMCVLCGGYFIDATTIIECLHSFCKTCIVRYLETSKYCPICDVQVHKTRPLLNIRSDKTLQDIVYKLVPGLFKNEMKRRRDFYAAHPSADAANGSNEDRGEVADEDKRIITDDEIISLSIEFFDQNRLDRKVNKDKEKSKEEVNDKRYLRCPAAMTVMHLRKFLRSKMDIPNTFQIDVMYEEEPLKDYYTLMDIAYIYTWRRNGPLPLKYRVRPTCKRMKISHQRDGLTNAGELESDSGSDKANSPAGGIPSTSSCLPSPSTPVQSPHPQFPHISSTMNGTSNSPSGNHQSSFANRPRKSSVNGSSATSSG
T2 sequence (Q96SW2 whole entry, looked up): as the sequence (Q96SW2 whole entry, looked up) above

[3] = biological target: T3, Protein cereblon/Histone-lysine N-methyltransferase EZH2 (Homo sapiens) (UniProt Q15910+Q96SW2); experiment: PROTAC activity at CRBN/EZH2 in human PC-3M cells assessed as degradation of EZH2 protein expression at 0.2 to 5 uM incubated for 24 hrs by Western blotting analysis; format: cell-based; details: dose 0.2-5 µM
T3 sequence (Q15910 whole entry, looked up): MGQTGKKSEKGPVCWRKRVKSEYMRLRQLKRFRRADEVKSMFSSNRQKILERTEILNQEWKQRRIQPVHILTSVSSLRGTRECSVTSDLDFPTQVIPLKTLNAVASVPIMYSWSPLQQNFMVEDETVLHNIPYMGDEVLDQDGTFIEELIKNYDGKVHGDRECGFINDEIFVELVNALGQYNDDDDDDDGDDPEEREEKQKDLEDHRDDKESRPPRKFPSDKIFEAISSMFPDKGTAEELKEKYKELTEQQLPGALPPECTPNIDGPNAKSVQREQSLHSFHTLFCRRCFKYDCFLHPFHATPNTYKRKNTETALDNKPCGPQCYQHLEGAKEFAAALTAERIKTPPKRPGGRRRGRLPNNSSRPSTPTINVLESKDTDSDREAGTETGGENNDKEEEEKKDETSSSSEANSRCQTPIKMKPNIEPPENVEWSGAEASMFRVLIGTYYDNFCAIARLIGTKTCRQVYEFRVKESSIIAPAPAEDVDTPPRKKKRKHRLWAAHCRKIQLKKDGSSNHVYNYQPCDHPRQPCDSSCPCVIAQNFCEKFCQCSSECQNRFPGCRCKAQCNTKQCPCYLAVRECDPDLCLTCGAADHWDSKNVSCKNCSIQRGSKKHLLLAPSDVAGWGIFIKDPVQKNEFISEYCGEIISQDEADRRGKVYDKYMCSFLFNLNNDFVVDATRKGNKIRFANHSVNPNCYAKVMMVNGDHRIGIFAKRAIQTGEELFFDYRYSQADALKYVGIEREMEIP
T3 sequence (Q96SW2 whole entry, looked up): as the sequence (Q96SW2 whole entry, looked up) above

[4] = biological target: T3, Protein cereblon/Histone-lysine N-methyltransferase EZH2 (Homo sapiens); experiment: PROTAC activity at CRBN/EZH2 in human K562 cells assessed as degradation of EZH2 protein expression at 0.1 to 10 uM incubated for 24 hrs by Western blotting analysis; format: cell-based; details: dose 0.1-10 µM
[5] = biological target: T4, Protein cereblon/E3 ubiquitin-protein ligase RING2 (Homo sapiens, UniProt Q96SW2+Q99496); experiment: PROTAC activity at CRBN/RING1B in human MDA-MB-468 cells assessed as degradation of RING1B protein expression at 5 uM incubated for 24 hrs by Western blotting analysis; format: cell-based
Target sequence in this assay (Q96SW2 whole entry): as the sequence (Q96SW2 whole entry, looked up) above
Target sequence in this assay (Q99496 2-336 partner limits assumed): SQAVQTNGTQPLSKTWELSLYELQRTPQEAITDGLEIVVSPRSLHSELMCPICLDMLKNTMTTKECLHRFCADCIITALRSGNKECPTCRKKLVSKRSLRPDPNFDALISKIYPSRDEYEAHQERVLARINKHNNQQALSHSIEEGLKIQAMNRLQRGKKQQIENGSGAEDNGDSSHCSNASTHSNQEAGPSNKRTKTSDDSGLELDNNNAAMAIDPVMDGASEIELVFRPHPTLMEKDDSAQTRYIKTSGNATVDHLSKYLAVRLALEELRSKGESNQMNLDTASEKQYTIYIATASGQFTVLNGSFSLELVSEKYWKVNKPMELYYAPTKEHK

[6] = biological target: T2, Protein cereblon/Polycomb complex protein BMI-1; experiment: PROTAC activity at […] in human K562 cells assessed as degradation of BMI1 mRNA expression at 10 uM incubated for 20 hrs by RT-qPCR analysis; format: cell-based
[7] = biological target: Protein cereblon/YY1-associated factor 2 (Homo sapiens) (UniProt Q96SW2+Q8IY57); experiment: PROTAC activity at CRBN/YAF in human K562 cells assessed as degradation of YAF protein expression at 1 to 10 uM incubated for 24 hrs by Western blotting analysis; format: cell-based; details: dose 1-10 µM
Protein cereblon/YY1-associated factor 2 (Homo sapiens), sequence (Q8IY57 whole entry, looked up): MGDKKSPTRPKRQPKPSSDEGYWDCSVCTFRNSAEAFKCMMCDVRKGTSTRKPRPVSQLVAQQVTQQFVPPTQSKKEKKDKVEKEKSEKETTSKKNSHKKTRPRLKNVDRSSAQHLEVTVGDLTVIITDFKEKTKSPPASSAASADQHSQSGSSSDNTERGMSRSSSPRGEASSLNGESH
Protein cereblon/YY1-associated factor 2 (Homo sapiens), sequence (Q96SW2 whole entry, looked up): as the sequence (Q96SW2 whole entry, looked up) above

PC-3M [8] = experiment: Antiproliferative activity against human PC-3M cells assessed as inhibition of cell growth at 1 to 10 uM incubated for 5 days by WST-8 assay; format: functional, cell-based; details: dose 1-10 µM, time 5.0 day
[9] = biological target: T4, Protein cereblon/E3 ubiquitin-protein ligase RING2; experiment: PROTAC activity at CRBN/RING1B in human K562 cells assessed as degradation of RING1B protein expression at 10 uM measured after 4 hrs by Western blotting analysis; format: cell-based
Target sequence in this assay (Q96SW2 whole entry): as the sequence (Q96SW2 whole entry, looked up) above
Target sequence in this assay (Q99496 2-336 partner limits assumed): as the sequence (Q99496 2-336 partner limits assumed) above

786-0 [10] = experiment: Antiproliferative activity against human 786-0 cells assessed as inhibition of cell growth at 30 uM incubated for 7 days by WST-8 assay; format: functional, cell-based; details: time 7.0 day
[11] = biological target: T2, Protein cereblon/Polycomb complex protein BMI-1; experiment: PROTAC activity at CRBN/BIM1 in human PC-3M cells assessed as degradation of BMI1 protein expression at 1 uM incubated for 24 hrs by Western blotting analysis; format: cell-based
[12] = biological target: T4, Protein cereblon/E3 ubiquitin-protein ligase RING2; experiment: PROTAC activity at CRBN/RING1B in human K562 cells assessed as degradation of RING1B protein expression at 10 uM incubated for 20 hrs in presence of MG132 by Western blotting analysis; format: cell-based
Target sequence in this assay (Q96SW2 whole entry): as the sequence (Q96SW2 whole entry, looked up) above
Target sequence in this assay (Q99496 2-336 partner limits assumed): as the sequence (Q99496 2-336 partner limits assumed) above

[13] = biological target: T4, Protein cereblon/E3 ubiquitin-protein ligase RING2; experiment: PROTAC activity at CRBN/RING1B in human K562 cells assessed as degradation of RING1B mRNA expression at 10 uM incubated for 20 hrs by RT-qPCR analysis; format: cell-based
Target sequence in this assay (Q96SW2 whole entry): as the sequence (Q96SW2 whole entry, looked up) above
Target sequence in this assay (Q99496 2-336 partner limits assumed): as the sequence (Q99496 2-336 partner limits assumed) above

K562 [14] = experiment: Antiproliferative activity against human K562 cells assessed as fold increase in HoxD mRNA expression at 10 uM incubated for 24 hrs by RT-qPCR analysis; format: functional
[15] = biological target: Protein cereblon/RING1 and YY1-binding protein (Homo sapiens) (UniProt Q96SW2+Q8N488); experiment: PROTAC activity at CRBN/RYBP in human K562 cells assessed as degradation of RYBP protein expression at 1 to 10 uM incubated for 24 hrs by Western blotting analysis; format: cell-based; details: dose 1-10 µM
786-0 [16] = experiment: Induction of PRC1 degradation in human 786-0 cells with defective VHL assessed as reduction of H2AK119ub chromatin mark at 10 uM incubated for 24 hrs by Western blotting analysis; format: cell-based
[17] = biological target: T1, Protein cereblon/Polycomb protein SUZ12 (Homo sapiens); experiment: PROTAC activity at CRBN/SUZ12 in human K562 cells assessed as degradation of SUZ12 protein expression at 0.1 to 10 uM incubated for 24 hrs by Western blotting analysis; format: cell-based; details: dose 0.1-10 µM
[18] = Drug concentration in Swiss albino mouse plasma at 50 mg/kg,ip administration measured after 8 hrs by LC-MS/MS analysis; format: ADME, organism-based
[19] = Drug concentration in Swiss albino mouse plasma at 50 mg/kg,ip administration measured after 2 hrs by LC-MS/MS analysis; format: ADME, organism-based
[20] = biological target: T2, Protein cereblon/Polycomb complex protein BMI-1; experiment: PROTAC activity at CRBN/BIM1 in human MDA-MB-468 cells assessed as degradation of BMI1 protein expression at 5 uM incubated for 24 hrs by Western blotting analysis; format: cell-based
PC-3M [21] = experiment: Induction of PRC2 degradation in human PC-3M cells assessed as reduction of H3K27me3 chromatin mark at 1 uM incubated for 24 hrs by Western blotting analysis; format: cell-based
[22] = biological target: T4, Protein cereblon/E3 ubiquitin-protein ligase RING2; experiment: PROTAC activity at CRBN/RING1B in human K562 cells assessed as degradation of RING1B protein expression incubated for 24 hrs by Western blotting analysis; format: cell-based
[23] = biological target: Protein cereblon/Polycomb protein EED (Homo sapiens, UniProt O75530+Q96SW2); experiment: PROTAC activity at CRBN/EED in human K562 cells assessed as degradation of EED mRNA expression at 10 uM incubated for 20 hrs by RT-qPCR analysis; format: cell-based
[24] = biological target: T4, Protein cereblon/E3 ubiquitin-protein ligase RING2; experiment: PROTAC activity at CRBN/RING1B in human K562 cells assessed as degradation of RING1B protein expression at 10 uM measured after 12 hrs by Western blotting analysis relative to control; format: cell-based
Target sequence in this assay (Q96SW2 whole entry): as the sequence (Q96SW2 whole entry, looked up) above
Target sequence in this assay (Q99496 2-336 partner limits assumed): as the sequence (Q99496 2-336 partner limits assumed) above

[25] = biological target: T2, Protein cereblon/Polycomb complex protein BMI-1; experiment: PROTAC activity at CRBN/BIM1 in human PC-3M cells assessed as degradation of BMI1 protein expression at 5 uM incubated for 24 hrs by Western blotting analysis; format: cell-based
[26] = biological target: Protein cereblon/E3 ubiquitin-protein ligase RING1 (Homo sapiens) (UniProt Q96SW2+Q06587); experiment: PROTAC activity at CRBN/RING1A in human K562 cells assessed as degradation of RING1A protein expression at 1 to 10 uM incubated for 24 hrs by Western blotting analysis; format: cell-based; details: dose 1-10 µM
[27] = biological target: T4, Protein cereblon/E3 ubiquitin-protein ligase RING2; experiment: PROTAC activity at CRBN/RING1B in human PC-3M cells assessed as degradation of RING1B protein expression at 1 uM incubated for 24 hrs by Western blotting analysis; format: cell-based
Target sequence in this assay (Q96SW2 whole entry): as the sequence (Q96SW2 whole entry, looked up) above
Target sequence in this assay (Q99496 2-336 partner limits assumed): as the sequence (Q99496 2-336 partner limits assumed) above

786-0 [28] = experiment: Antiproliferative activity against human 786-0 cells assessed as inhibition of cell growth at 15 uM incubated for 7 days by WST-8 assay; format: functional, cell-based; details: time 7.0 day
[29] = biological target: T2, Protein cereblon/Polycomb complex protein BMI-1; experiment: PROTAC activity at […] in human K562 cells assessed as degradation of BMI1 protein expression at 10 uM measured after 4 hrs by Western blotting analysis; format: cell-based
K562 [30] = experiment: Induction of PRC2 degradation in human K562 cells assessed as reduction of H3K27me3 chromatin mark at 0.1 to 10 uM incubated for 24 hrs by Western blotting analysis; format: cell-based; details: dose 0.1-10 µM

O=C(CNc1cccc2c1C(=O)N(C1CCC(=O)NC1=O)C2=O)NCCCCN1CCN(c2ccc(-c3cnc(NCc4ccco4)n4cnnc34)cc2)CC1 (stereo not given)
Activity [1]: inactive | Activity [2]: inactive | Activity [3]: inactive | Activity [4]: Active | Activity [5]: Active | Activity [6]: inactive | Activity [7]: inactive | Activity (PC-3M [8]): Active | Activity [9]: Active | Activity (786-0 [10]): Active | Activity [11]: Active | Activity [12]: inactive | Activity [13]: inactive | fold change (FC) (K562 [14]): 2.3 | Activity [15]: inactive | Activity (786-0 [16]): Active | Activity [17]: Active | concentration at 8 h [18]: > 500 nM | concentration at 2 h [19]: > 1000 nM | Activity [20]: Active | Activity (PC-3M [21]): inactive | DC50 [22]: 1300 nM | Activity [23]: inactive | Activity [24]: 100% | Activity [25]: Active | Activity [26]: Active | Activity [27]: Active | Activity (786-0 [28]): Active | Activity [29]: Active | Activity (K562 [30]): Active
